# Measured values: patent publication US7767712B2, “Storage-stable aqueous composition comprising a magnesium compound and L-carnitine” (Verla-Pharm Arzneimittelfabrik Apotheker H.J.v. Ehrlich …, priority 2006, dated 2010)
# Assay: Solubility of L-carnitine at 20° C.
# Type: physicochemical
# Conditions: in 100 g of solution
# From the text: This applies, furthermore, without taking into account the amount of water which is required for dissolving magnesium aspartate hydrochloride.
smiles,measurement,value
"C[N+](C)(C)CC(O)CC(=O)[O-] [L-carnitine, 3-hydroxy-4-(trimethylammonio)butyro-betaine]",amount of L-carnitine that can be dissolved in 100 g of an aqueous solution which contains 51% by weight magnesium aspartate hydrochloride,up to 150 g
